Laboratory results as given in publication PMC12146338, “Bioanalytical assay for the quantification of rucaparib in rat plasma using UPLC-MS/MS: development, and validation for interaction with myricetin” (Frontiers in Pharmacology, 2025).

How the values were obtained:
[1] = Drug-drug interaction (DDI) pharmacokinetic study of rucaparib with or without myricetin in rats
Method: Twelve Sprague-Dawley (SD) male rats were provided with an appropriate environment with unrestricted water and food for seven consecutive days prior to the experiment. The day prior to the study, the rats underwent a 12-h period of fasting while being allowed unfettered access to water. Subsequently, they were randomly assigned to two groups (n = 6). Group A was received an oral dose of rucaparib at 20 mg/kg, while Group B was received an oral administration of rucaparib at 20 mg/kg along with myricetin at 50 mg/kg. The doses of rucaparib ([Augustine et al., 2019]) and myricetin ([Ye et al., 2024]) administered were determined based on prior literatures. Rucaparib was formulated in corn oil with myricetin prepared in 0.5% carboxymethylcellulose sodium (CMC-Na) solution. Group B rats were administered a single gavage of 50 mg/kg of myricetin, while Group A rats were received an equivalent volume of CMC-Na solution. Subsequently, at the 30 min mark, both groups were administered a single dose of 20 mg/kg of rucaparib. Before dosing (designated as 0 h) and at 1.5, 3, 4, 5, 6, 8, 12, 24 and 36 h post-dosing, 0.3 mL of plasma samples were drawn from the caudal vein. These samples were collected into heparin-containing tubes and then centrifuged at 8,000 rpm at 4°C for 10 min. Afterwards, the plasma was transferred to new tubes and preserved at −80°C for further analysis.
The DAS 3.0 software was used to calculate the pharmacokinetic parameters of rucaparib using a non-compartmental model. The key pharmacokinetic parameters of the two groups were analyzed using an independent samples t-test in SPSS 24.0. The p-value of less than 0.05 indicated a significant difference between the two groups. Mean plasma concentration-time curves were generated with GraphPad Prism 9.0 software (GraphPad Software Inc., California, United States).

[2] = Stability of rucaparib in rat plasma under different storage conditions (UPLC-MS/MS); format: in vitro ADME; conditions: n = 5
Method: The stability experiment was conducted at three different QCs (5.0, 200, and 400 ng/mL). It was carried out under various storage conditions, with each condition having five replicates (n = 5). These storage conditions encompassed stability within the analyzer (lasting for 4 h at 10°C), long-term storage (for 3 weeks at −80°C), short-term storage (for 3 h at room temperature) and freeze-thaw cycles (conducted three times).
The stability of rucaparib in rat plasma was examined under four distinct storage conditions. These included short-term storage (lasting 3 h at room temperature), exposure to three freeze-thaw cycles (transitioning from −80°C to room temperature), long-term storage (at −80°C for 21 days), and a 4 h placement in an autosampler maintained at 10°C.

[3] = test system: CYP2D6; set-up: method as in Lee et al., 2012; conditions: ref Lee et al., 2012; read-out: half-maximal inhibitory concentrations value, CYP2D6 metabolism; cited from earlier work
[4] = set-up: method as in Ross and Kasum, 2002; conditions: ref Ross and Kasum, 2002; cited from earlier work
[5] = male, Sprague-Dawley, rat, in vivo, po, 20 mg/kg

Question: What does the source list for `CNCc1ccc(-c2[nH]c3cc(F)cc4c3c2CCNC4=O)cc1` [Rucaparib]?
Answer: AUC(0-inf) [1, 5]: 1320 ng·h/mL; AUC(0-t) [1, 5]: 1220 ng·h/mL; CL/F [1, 5]: 294 mL/min/kg; Cmax [1, 5]: 126 ± 58.5 ng/mL; Tmax [1, 5]: 4.25 ± 1.78 h; half-life [1, 5]: 10.9 ± 3.41 h; Stability RE (%) ([2]; added 5.0 ng/mL, Autosampler 10°C, 4 h): 1.5%; Stability RE (%) ([2]; added 5.0 ng/mL, Room temperature, 3 h): −4.2%; Stability RE (%) ([2]; added 5.0 ng/mL, Three freeze-thaw): −10.1%; Stability RE (%) ([2]; added 5.0 ng/mL, −80°C, 3 weeks): 5.7%; Stability RE (%) ([2]; added 200 ng/mL, Autosampler 10°C, 4 h): 1.4%; Stability RE (%) ([2]; added 200 ng/mL, Room temperature, 3 h): −11.5%; Stability RE (%) ([2]; added 200 ng/mL, Three freeze-thaw): −1.6%; Stability RE (%) ([2]; added 200 ng/mL, −80°C, 3 weeks): 9.2%; Stability RE (%) ([2]; added 400 ng/mL, Autosampler 10°C, 4 h): 8.1%; Stability RE (%) ([2]; added 400 ng/mL, Room temperature, 3 h): −3.1%; Stability RE (%) ([2]; added 400 ng/mL, Three freeze-thaw): −11.6%; Stability RE (%) ([2]; added 400 ng/mL, −80°C, 3 weeks): 1.4%

Question: Which results are given for `O=c1c(O)c(-c2cc(O)c(O)c(O)c2)oc2cc(O)cc(O)c12` [myricetin]?
Answer: IC50 [3]: 57 µM; effect on plasma exposure to rucaparib ([1]; rats, 50 mg/kg myricetin + 20 mg/kg rucaparib vs rucaparib alone, independent samples t-test, p < 0.05): no significant effect; bioavailability [4]: low bioavailability
